Laboratory results as given in ChEMBL document CHEMBL1127009, “Fibrinogen receptor antagonists containing a gamma-lactam Gly-Asp isostere” (Bioorg Med Chem Lett, 1993).
Peptide text beside a SMILES is read from it. * marks the point of attachment. Cbz = O=C(OCc1ccccc1)*

Legend:
[1] = species: Homo sapiens; assay: Inhibition of ADP-induced aggregation of human blood platelets in the presence of fibrinogen.; assay type: functional
[2] = target: Integrin alpha-IIb/beta-3 (Homo sapiens, UniProt P05106+P08514); assay: Inhibition of fibrinogen binding to purified immobilized alpha IIb beta-3 integrin isolated from membranes of human blood platelets.
Integrin alpha-IIb/beta-3, sequence (P05106 27-788 limits assumed): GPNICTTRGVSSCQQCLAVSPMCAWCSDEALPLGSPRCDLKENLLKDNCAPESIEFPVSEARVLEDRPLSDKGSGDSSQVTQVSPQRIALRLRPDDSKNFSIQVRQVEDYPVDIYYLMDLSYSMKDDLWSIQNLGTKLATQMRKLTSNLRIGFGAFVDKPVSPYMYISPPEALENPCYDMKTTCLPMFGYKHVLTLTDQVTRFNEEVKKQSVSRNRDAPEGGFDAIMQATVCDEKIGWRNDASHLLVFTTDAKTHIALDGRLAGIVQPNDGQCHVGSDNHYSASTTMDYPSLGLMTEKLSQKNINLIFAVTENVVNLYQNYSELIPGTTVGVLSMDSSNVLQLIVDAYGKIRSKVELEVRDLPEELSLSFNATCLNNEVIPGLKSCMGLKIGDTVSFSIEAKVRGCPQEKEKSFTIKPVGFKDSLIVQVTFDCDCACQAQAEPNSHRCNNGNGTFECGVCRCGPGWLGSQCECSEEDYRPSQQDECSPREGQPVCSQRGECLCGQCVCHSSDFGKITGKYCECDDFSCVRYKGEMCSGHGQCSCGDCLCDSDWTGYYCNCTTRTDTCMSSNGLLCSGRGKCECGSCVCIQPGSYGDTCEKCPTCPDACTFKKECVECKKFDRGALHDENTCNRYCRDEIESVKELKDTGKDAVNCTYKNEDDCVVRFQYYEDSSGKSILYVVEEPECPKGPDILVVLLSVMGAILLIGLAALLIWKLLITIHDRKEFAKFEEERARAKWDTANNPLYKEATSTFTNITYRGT
Integrin alpha-IIb/beta-3, sequence (P08514 32-887 limits assumed): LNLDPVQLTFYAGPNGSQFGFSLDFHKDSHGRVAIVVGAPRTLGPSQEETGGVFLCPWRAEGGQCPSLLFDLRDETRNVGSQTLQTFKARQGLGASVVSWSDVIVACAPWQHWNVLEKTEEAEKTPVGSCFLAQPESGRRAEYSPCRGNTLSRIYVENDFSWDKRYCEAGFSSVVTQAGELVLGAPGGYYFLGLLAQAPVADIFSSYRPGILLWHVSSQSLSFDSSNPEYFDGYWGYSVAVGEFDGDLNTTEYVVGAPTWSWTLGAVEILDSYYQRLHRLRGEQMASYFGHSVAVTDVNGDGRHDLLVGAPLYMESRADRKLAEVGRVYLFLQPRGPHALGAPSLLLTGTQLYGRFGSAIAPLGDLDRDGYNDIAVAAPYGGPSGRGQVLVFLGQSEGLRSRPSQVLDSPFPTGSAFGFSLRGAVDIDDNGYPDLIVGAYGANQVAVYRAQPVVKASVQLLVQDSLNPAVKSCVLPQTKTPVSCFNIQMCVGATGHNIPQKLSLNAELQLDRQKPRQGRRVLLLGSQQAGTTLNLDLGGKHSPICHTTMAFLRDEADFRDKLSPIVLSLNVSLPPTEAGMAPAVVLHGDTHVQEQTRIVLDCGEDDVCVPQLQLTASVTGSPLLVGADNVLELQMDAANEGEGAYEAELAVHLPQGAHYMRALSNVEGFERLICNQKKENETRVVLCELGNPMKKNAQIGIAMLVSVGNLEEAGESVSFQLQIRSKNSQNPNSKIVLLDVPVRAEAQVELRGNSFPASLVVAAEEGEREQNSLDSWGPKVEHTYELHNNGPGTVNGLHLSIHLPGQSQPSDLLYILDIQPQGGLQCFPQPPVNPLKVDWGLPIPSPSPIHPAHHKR
Integrin alpha-IIb/beta-3, sequence (P08514 891-1039 limits assumed): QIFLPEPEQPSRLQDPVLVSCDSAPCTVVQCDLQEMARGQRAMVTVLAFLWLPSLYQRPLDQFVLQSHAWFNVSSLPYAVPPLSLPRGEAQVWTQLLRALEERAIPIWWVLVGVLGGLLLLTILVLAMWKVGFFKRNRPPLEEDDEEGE

Row | SMILES | IC50 [1] | IC50 [2]
1 | COC(=O)[C@H](Cc1ccccc1)NC(=O)[C@H](CC(=O)O)NC(=O)[C@@H](C)NC(=O)[C@H](CCCN=C(N)N)NC(=O)OCc1ccccc1 | > 100000 nM | > 100000 nM
2 | COC(=O)[C@H](Cc1ccccc1)NC(=O)[C@H](CC(=O)O)N1CC[C@H](NC(=O)[C@H](CCCN=C(N)N)NC(=O)OCc2ccccc2)C1=O | 85100 nM | 770 nM
3 | N=C(N)NCCC[C@H](NC(=O)OCc1ccccc1)C(=O)N[C@H]1CCN([C@@H](CC(=O)O)C(=O)N[C@@H](Cn2ccc3ccccc32)C(=O)O)C1=O | 10000 nM | 1070 nM
4 | N=C(N)c1ccc(CC(=O)N[C@H]2CCN([C@@H](CC(=O)O)C(=O)N[C@@H](CC34CC5CC(CC(C5)C3)C4)C(=O)O)C2=O)cc1 | 100 nM | 5 nM
5 | COC(=O)[C@H](Cn1ccc2ccccc21)NC(=O)[C@H](CC(=O)O)N1CC[C@H](NC(=O)[C@H](CCCN=C(N)N)NC(=O)OCc2ccccc2)C1=O | 25100 nM | 1220 nM
6 | N=C(N)c1ccc(CC(=O)N[C@H]2CCN([C@@H](CC(=O)O)C(=O)N[C@@H](Cn3ccc4ccccc43)C(=O)O)C2=O)cc1 | 740 nM | 20 nM
7 | COC(=O)[C@H](CC12CC3CC(CC(C3)C1)C2)NC(=O)[C@H](CC(=O)O)N1CC[C@H](NC(=O)Cc2ccc(C(=N)N)cc2)C1=O | 360 nM | 20 nM
8 | COC(=O)[C@H](Cn1ccc2ccccc21)NC(=O)[C@H](CC(=O)O)N1CC[C@H](NC(=O)Cc2ccc(C(=N)N)cc2)C1=O | 4400 nM | 120 nM
9 | N=C(N)NCCC[C@H](NC(=O)OCc1ccccc1)C(=O)N[C@@H]1CCN([C@@H](CC(=O)O)C(=O)N[C@@H](Cc2ccccc2)C(=O)O)C1=O | > 100000 nM | > 100000 nM
10 | CC(C)[C@H](NC(=O)[C@@H](CC(=O)O)N1CC[C@H](NC(=O)Cc2ccc(C(=N)N)cc2)C1=O)C(=O)O | > 100000 nM | > 100000 nM
11 | COC(=O)[C@H](Cc1ccccc1)NC(=O)[C@H](CC(=O)O)NC(=O)[C@H](C)NC(=O)[C@H](CCCNC(=N)N)NC(=O)OCc1ccccc1 | > 100000 nM | 78000 nM
12 | CC(C)C[C@H](NC(=O)[C@H](CC(=O)O)N1CC[C@H](NC(=O)Cc2ccc(C(=N)N)cc2)C1=O)C(=O)O | 360 nM | 40 nM
13 | N=C(N)c1ccc(CC(=O)N[C@H]2CCN([C@@H](CC(=O)O)C(=O)N[C@H](C(=O)O)C34CC5CC(CC(C5)C3)C4)C2=O)cc1 | 40 nM | 2 nM
14 | COC(=O)[C@H](CC12CC3CC(CC(C3)C1)C2)NC(=O)[C@H](CC(=O)O)N1CC[C@H](NC(=O)[C@H](CCCN=C(N)N)NC(=O)OCc2ccccc2)C1=O | 4000 nM | 510 nM
15 | CC(C)C[C@H](NC(=O)[C@H](CC(=O)O)N1CC[C@H](NC(=O)[C@H](CCCN=C(N)N)NC(=O)OCc2ccccc2)C1=O)C(=O)O | 12800 nM | 560 nM
16 | COC(=O)[C@H](Cc1ccccc1)NC(=O)[C@H](CC(=O)O)NC(=O)CNC(=O)[C@H](CCCN=C(N)N)NC(=O)OCc1ccccc1 (Cbz-RGDF-OMe) | 13000 nM | 270 nM
17 | CC(C)[C@H](NC(=O)[C@H](CC(=O)O)NC(=O)CNC(=O)[C@H](CCCN=C(N)N)NC(=O)OCc1ccccc1)C(=O)O (Cbz-RGDV-OH) | 3100 nM | 110 nM
